According to patent US20260234115A1, “LIPID COMPOUNDS, COMPOSITIONS, AND USES THEREOF” (Liberate Bio, Inc., priority 2023, published 2026):
Marks after values point to notes of the source that are not given here.

Tests used:
[1] = Dynamic light scattering: LNP particle size and PDI; assay type: physicochemical; conditions: for PDI N/P:6 / Size (nm) N/P:6: LNP
Experimental: (§1) Lipids and active ingredients (e.g., RNA, DNA, etc.) were assembled into LNPs using microfluidic mixing. An ethanol phase was prepared by solubilizing ionizable lipids (i.e., lipid compounds), phospholipids (e.g., DSPC), cholesterol, and PEG lipids in ethanol, at predetermined mol % ratios given in Table 2. An aqueous phase was prepared by diluting a nucleic acid cargo (e.g., firefly luciferase mRNA) in an acidified buffer (pH 4.0 citrate buffer, 50 mM). A chip with microfluidic mixing architecture (e.g., toroidal mixer) was used to mix the two phases at predetermined flow rate ratios (e.g., 9 ml/min for the aqueous phase and 3 ml/min for the ethanol phase). Resulting LNPs comprising the lipids and encapsulating the nucleic acid cargo were dialyzed against PBS pH 7.4 for 2 hours at room temperature in a 20 kDa MWCO dialysis membrane. Then, PBS was refreshed to continue dialysis overnight at 2-8 TC. Upon completion of the buffer exchange, LNPs were optionally concentrated using a ultracentrifugal unit with a 10-100 kDa MWCO membrane.
d. Dynamic Light Scattering
LNPs were diluted with PBS pH 7.4 to predetermined dilution ranges based on the process step and LNP concentration. Following mixing, the particle size and PDI were measured by a dynamic light scattering instrument.

[2] = Plate-based fluorescence (RiboGreen) assay: nucleic acid cargo content and encapsulation efficiency of LNPs; assay type: physicochemical; conditions: for EE (%) N/P:6: LNP
Experimental: as §1
c. Plate-Based Fluorescence (RiboGreen) Assay
Nucleic acid cargos in the LNPs were quantified by RiboGreen assay, against a nucleic acid standard curve. LNPs encapsulating nucleic acid cargo were mixed with 1× Tris-EDTA (TE) and 2% triton in TE, separately, to achieve dilutions required by the assay. Then, the samples were heated at 30° C. and vortexed at 300 rpm. Samples were plated into 96-well plates and RiboGreen reagent was added into each well. Following incubation in the dark, fluorescence was measured from the wells, and plotted against the standard curve. Nucleic acid concentration obtained from the Triton-treated samples were used for total cargo concentration quantification. Only TE diluted sample fluorescence values were used to determine the non-encapsulated (free) cargo, and their ratio was used to determine the encapsulation efficiency (EE %).

mouse organs = experiment: In vivo activity screening in mice: organ mean total flux (p/s) of luciferase activity after injection of F2 LNP pools (Table 6, FIG. 7A-7C); conditions: luciferase mRNA
How it was run: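 Luciferase output per organ is reported as mean total flux (p/s) from IVIS regions of interest. Organs were collected from perfused C57BL/6J mice and imaged 10-15 min after s.c. D-luciferin, 4-6 h after i.v. dosing. Dosing was 0.25-3 mg/kg luciferase mRNA in F2 LNP pools.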

[3] = LNP compositions for in vivo mouse study, four formulations (F1-F4) of the lipid compound pooled, or pools of four compounds (sixteen compositions)
[4] = LNP compositions for in vivo mouse study, four formulations (F1-F4) pooled, or pools of four compounds
[5] = LNP compositions for Formulation F2 Study

Row | Structure (SMILES) | Particle Size (nm) [1, 3] [nm] | PDI [1, 4] | PDI N/P:6 ([1]; Formulation F1, N/P 6) | Size (nm) N/P:6 ([1]; Formulation F1, N/P 6) [nm] | PDI N/P:6 ([1]; Formulation F2, N/P 6) | Size (nm) N/P:6 ([1]; Formulation F2, N/P 6) [nm] | PDI N/P:6 ([1]; Formulation F3, N/P 6) | Size (nm) N/P:6 ([1]; Formulation F3, N/P 6) [nm] | PDI N/P:6 ([1]; Formulation F4, N/P 6) | Size (nm) N/P:6 ([1]; Formulation F4, N/P 6) [nm] | EE % [2, 4] [%] | mRNA Content [2, 4] [µg/mL] | Organ Mean Total Flux Femur (mouse organs; Mouse 12, dose 0.5 mg/kg) | Organ Mean Total Flux Heart (mouse organs; Mouse 12, dose 0.5 mg/kg) | Organ Mean Total Flux Kidney (mouse organs; Mouse 12, dose 0.5 mg/kg) | Organ Mean Total Flux Liver (mouse organs; Mouse 12, dose 0.5 mg/kg) | Organ Mean Total Flux Lung (mouse organs; Mouse 12, dose 0.5 mg/kg) | Organ Mean Total Flux Muscle (mouse organs; Mouse 12, dose 0.5 mg/kg) | Organ Mean Total Flux Pancreas (mouse organs; Mouse 12, dose 0.5 mg/kg) | Organ Mean Total Flux Spleen (mouse organs; Mouse 12, dose 0.5 mg/kg) | further results
1 | CCCCC/C=C\C/C=C\CCCCCCCC(=O)OCC(COC(=O)CCCCCCC/C=C\C/C=C\CCCCC)(COC(=O)CCC(CCCCCC)OC(=O)NCCN1CCCC1)COC(=O)CC12CC3CC(CC(C3)C1)C2 (stereo not drawn) [Compound 5, [2-[[2-(1-adamantyl)acetyl]oxymethyl]-2-[[(9Z,12Z)-octadeca-9,12-dienoyl]oxymethyl]-3-[4-(2-pyrrolidin-1-ylethylcarbamoyloxy)decanoyloxy]propyl](9Z,12Z)-octadeca-9,12-dienoate] | 84.4 | 0.12 | 0.12 | 70 ± 0 | 0.08 | 88 ± 3 | 0.06 | 97 ± 3 | 0.16 | 66 ± 3 | 96 | 80 |  |  |  |  |  |  |  |  | EE (%) N/P:6 ([2]; Formulation F1, N/P 6): 98%; EE (%) N/P:6 ([2]; Formulation F2, N/P 6): 96%; EE (%) N/P:6 ([2]; Formulation F3, N/P 6): 98%; EE (%) N/P:6 ([2]; Formulation F4, N/P 6): 99%
2 | CCCCC/C=C\CCOC(=O)CCCCCC(=O)OCC(COC(=O)CCCCCCOC(=O)C(CCCC)CCCCCC)(COC(=O)CCCCCC(=O)OCC/C=C\CCCCC)COC(=O)CCC(CCCCCC)OC(=O)NCCN1CCCC1 (stereo not drawn) [Compound 16, O7-[2-[7-(2-butyloctanoyloxy)heptanoyloxymethyl]-2-[[7-[(Z)-non-3-enoxy]-7-oxo-heptanoyl]oxymethyl]-3-[4-(2-pyrrolidin-1-ylethylcarbamoyloxy)decanoyloxy]propyl]O1-[(Z)-non-3-enyl]heptanedioate] | 82.6 | 0.125 | 0.14 | 73 ± 7 | 0.07 | 82 ± 2 | 0.04 | 92 ± 0 | 0.15 | 64 ± 0 | 96 | 84 |  |  |  |  |  |  |  |  | EE (%) N/P:6 ([2]; Formulation F1, N/P 6): 99%; EE (%) N/P:6 ([2]; Formulation F2, N/P 6): 99%; EE (%) N/P:6 ([2]; Formulation F3, N/P 6): 98%; EE (%) N/P:6 ([2]; Formulation F4, N/P 6): 99%
3 | CCCCCCC(CCC(=O)OCC(COC(=O)CCCCCCOC(=O)C(CCCC)CCCCCC)(COC(=O)CCCCCCOC(=O)C(CCCC)CCCCCC)COC(=O)CCCCCCOC(=O)C(CCCC)CCCCCC)OC(=O)NCCN1CCCC1 (stereo not drawn) [Compound 18, [7-[2,2-bis[7-(2-butyloctanoyloxy)heptanoyloxymethyl]-3-[4-(2-pyrrolidin-1-ylethylcarbamoyloxy)decanoyloxy]propoxy]-7-oxo-heptyl]2-butyloctanoate] | 81.1 | 0.066 | 0.04 | 67 ± 1 | 0.02 | 78 ± 1 | 0.03 | 96 ± 2 | 0.05 | 65 ± 2 | 97 | 100 |  |  |  |  |  |  |  |  | PDI [1, 5]: 0.059; Particle Size (nm) [1, 5]: 92.2 nm; EE % [2, 5]: 98%; EE (%) N/P:6 ([2]; Formulation F1, N/P 6): 99%; EE (%) N/P:6 ([2]; Formulation F2, N/P 6): 99%; EE (%) N/P:6 ([2]; Formulation F3, N/P 6): 99%; EE (%) N/P:6 ([2]; Formulation F4, N/P 6): 99%
4 | CCCCC/C=C\CCOC(=O)CCCCC(=O)OCC(COC(=O)CCCCC(=O)OCC/C=C\CCCCC)(COC(=O)CCC(CCCCCC)OC(=O)NCCN1CCCC1)COC(=O)C12CCC(F)(CC1)CC2 (stereo not drawn) [Compound 93, O6-[2-[(4-fluorobicyclo[2.2.2]octane-1-carbonyl)oxymethyl]-2-[[6-[(Z)-non-3-enoxy]-6-oxo-hexanoyl]oxymethyl]-3-[4-(2-pyrrolidin-1-ylethylcarbamoyloxy)decanoyloxy]propyl]O1-[(Z)-non-3-enyl]hexanedioate] |  |  |  |  |  |  |  |  |  |  |  |  | 27.8 p/s (×10^6) | 1.3 p/s (×10^6) | 3.5 p/s (×10^6) | 528.7 p/s (×10^6) | 34.3 p/s (×10^6) | 11.0 p/s (×10^6) | 25.8 p/s (×10^6) | 136.6 p/s (×10^6) | 
5 | CCCCC/C=C\CCOC(=O)CCCCC(=O)OCC(COC(=O)CCCCC(=O)OCC/C=C\CCCCC)(COC(=O)CCC(CCCCCC)OC(=O)NCCN1CCCC1)COC(=O)C1(C2CCCCC2)CCCCC1 (stereo not drawn) [Compound 96, O6-[2-[(1-cyclohexylcyclohexanecarbonyl)oxymethyl]-2-[[6-[(Z)-non-3-enoxy]-6-oxo-hexanoyl]oxymethyl]-3-[4-(2-pyrrolidin-1-ylethylcarbamoyl-oxy)decanoyloxy]propyl]O1-[(Z)-non-3-enyl]hexanedioate] |  |  |  |  |  |  |  |  |  |  |  |  | 3.4 p/s (×10^6) | 0.4 p/s (×10^6) | 0.9 p/s (×10^6) | 213.0 p/s (×10^6) | 9.0 p/s (×10^6) | 11.9 p/s (×10^6) | 0.9 p/s (×10^6) | 6.6 p/s (×10^6) | 
6 | CCCCC/C=C\CCOC(=O)CCCCC(=O)OCC(COC(=O)CCCCC(=O)OCC/C=C\CCCCC)(COC(=O)CCC(CCCCCC)OC(=O)NCCN1CCCC1)COC(=O)[C@]12CC[C@H](CC1)C2 (stereo partly drawn) [Compound 99, O6-[2-[[6-[(Z)-non-3-enoxy]-6-oxo-hexanoyl]oxymethyl]-2-(norbornane-1-carbonyloxymethyl)-3-[4-(2-pyrrolidin-1-ylethylcarbamoyloxy)decanoyloxy]propyl]O1-[(Z)-non-3-enyl]hexanedioate] |  |  |  |  |  |  |  |  |  |  |  |  | 7.2 p/s (×10^6) | 0.4 p/s (×10^6) | 1.2 p/s (×10^6) | 177.0 p/s (×10^6) | 31.4 p/s (×10^6) | 6.5 p/s (×10^6) | 4.3 p/s (×10^6) | 47.5 p/s (×10^6) | 
7 | CCCCC/C=C\CCOC(=O)CCCCC(=O)OCC(COC(=O)CCCCC(=O)OCC/C=C\CCCCC)(COC(=O)CCC(CCCCCC)OC(=O)NCCN1CCCC1)COC(=O)C1CC2(C1)CC(F)(F)C2 (stereo not drawn) [Compound 100, O6-[2-[(2,2-difluorospiro[3.3]heptane-6-carbonyl)oxymethyl]-2-[[6-[(Z)-non-3-enoxy]-6-oxo-hexanoyl]oxymethyl]-3-[4-(2-pyrrolidin-1-ylethylcarbamoyloxy)decanoyloxy]propyl]O1-[(Z)-non-3-enyl]hexanedioate] |  |  |  |  |  |  |  |  |  |  |  |  | 13.8 p/s (×10^6) | 0.7 p/s (×10^6) | 2.3 p/s (×10^6) | 273.0 p/s (×10^6) | 37.8 p/s (×10^6) | 4.0 p/s (×10^6) | 25.2 p/s (×10^6) | 163.7 p/s (×10^6) | 
8 | CCCCC/C=C\CCOC(=O)CCCCC(=O)OCC(COC(=O)CCCCC(=O)OCC/C=C\CCCCC)(COC(=O)CCC(CCCCCC)OC(=O)NCCN1CCCC1)COC(=O)C12CCCC1C2 (stereo not drawn) [Compound 101, O6-[2-(bicyclo[3.1.0]hexane-1-carbonyloxymethyl)-2-[[6-[(Z)-non-3-enoxy]-6-oxo-hexanoyl]oxymethyl]-3-[4-(2-pyrrolidin-1-ylethylcarbamoyloxy)decanoyloxy]propyl]O1-[(Z)-non-3-enyl]hexanedioate] |  |  |  |  |  |  |  |  |  |  |  |  | 9.7 p/s (×10^6) | 0.8 p/s (×10^6) | 0.9 p/s (×10^6) | 306.7 p/s (×10^6) | 26.5 p/s (×10^6) | 5.2 p/s (×10^6) | 14.3 p/s (×10^6) | 53.2 p/s (×10^6) | 
9 | CCCCC/C=C\CCOC(=O)CCCCC(=O)OCC(COC(=O)CCCCC(=O)OCC/C=C\CCCCC)(COC(=O)CCC(CCCCCC)OC(=O)NCCN1CCCC1)COC(=O)C1CCC2C(C1)C2(F)F (stereo not drawn) [Compound 103, O6-[2-[(7,7-difluoronorcarane-3-carbonyl)oxymethyl]-2-[[6-[(Z)-non-3-enoxy]-6-oxo-hexanoyl]oxymethyl]-3-[4-(2-pyrrolidin-1ylethylcarbamoyloxy)decanoyloxy]propyl]O1-[(Z)-non-3-enyl]hexanedioate] |  |  |  |  |  |  |  |  |  |  |  |  |  |  |  |  |  |  |  |  | Organ Mean Total Flux Femur (mouse organs; Mouse 13, dose 0.5 mg/kg): 26.0 p/s (×10^6); Organ Mean Total Flux Heart (mouse organs; Mouse 13, dose 0.5 mg/kg): 0.8 p/s (×10^6); Organ Mean Total Flux Kidney (mouse organs; Mouse 13, dose 0.5 mg/kg): 2.4 p/s (×10^6); Organ Mean Total Flux Liver (mouse organs; Mouse 13, dose 0.5 mg/kg): 444.3 p/s (×10^6); Organ Mean Total Flux Lung (mouse organs; Mouse 13, dose 0.5 mg/kg): 16.0 p/s (×10^6); Organ Mean Total Flux Muscle (mouse organs; Mouse 13, dose 0.5 mg/kg): 4.5 p/s (×10^6); Organ Mean Total Flux Pancreas (mouse organs; Mouse 13, dose 0.5 mg/kg): 13.5 p/s (×10^6); Organ Mean Total Flux Spleen (mouse organs; Mouse 13, dose 0.5 mg/kg): 161.3 p/s (×10^6)
